Measurements as given in ChEMBL document CHEMBL1914374, “Effect of different C3-aryl substituents on the antioxidant activity of 4-hydroxycoumarin derivatives” (Bioorg Med Chem, 2011).

Columns and labels:
Assay type in all cases: functional
[1] = tested on: Radical scavenging activity; assay: Antioxidant activity assessed as DPPH free radical scavenging activity after 10 mins by UV-Vis spectrophotometric analysis
[2] = Antioxidant activity assessed as trolox equivalents of ABTS radical scavenging activity by TEAC assay
[3] = Antioxidant activity in soybean lipoxygenase-induced beta-carotene-linoleic acid co-oxidation assessed as inhibition of beta-carotene bleaching after 10 mins relative to control; set-up: scale not given: the % may be the effect or the level left

Row | Structure (SMILES) | EC50 [1] [mM] | Activity [2] [µmolequiv/g] | Activity [3] [%/mmol]
1 | O=c1oc2ccccc2c(O)c1-c1ccccc1Cl | 4.14 | 50 | 
2 | Cc1cc(=O)oc2cc(O)ccc12 [HYMECROMONE] | 8.9 | 54.8 | < 0.5
3 | O=c1oc2ccccc2c(O)c1-c1cccc2ccccc12 | 6.41 | 56.8 | 4.26
4 | O=c1oc2ccccc2c(O)c1-c1ccc(Cl)cc1 | 4.15 | 50 | 5.94
5 | O=c1cc(O)c2ccccc2o1 [4-HYDROXYCOUMARINS] | 3.8 | 186 | 2.07
6 | O=c1oc2ccccc2c(O)c1-c1ccccc1 | 4.19 | 46.6 | 5.79
7 | COc1ccc(-c2c(O)c3ccccc3oc2=O)cc1 | 0.54 | 699 | 23.1
8 | COc1ccccc1-c1c(O)c2ccccc2oc1=O | 1.92 | 567 | 25.5
